Results reported in ChEMBL document CHEMBL1154434, “Novel keto-enamine Schiffs bases from 7-hydroxy-4-methyl-2-oxo-2H-benzo[h] chromene-8,10-dicarbaldehyde as potential antidyslipidemic and antioxidant agents” (2008).

Tests used:
Format in all cases: functional
Rattus norvegicus [1] = assay: Antidyslipidemic activity in WR-1339-induced hyperlipidemic Charles Foster rat assessed as reduction in plasma cholesterol level at 100 mg/kg, po after 18 hrs; design: scale not given: the % may be the effect or the level left
Rattus norvegicus [2] = assay: Antidyslipidemic activity in WR-1339-induced hyperlipidemic Charles Foster rat assessed as reduction in plasma triglyceride level at 100 mg/kg, po after 18 hrs; design: scale not given: the % may be the effect or the level left
Rattus norvegicus [3] = assay: Antidyslipidemic activity in WR-1339-induced hyperlipidemic Charles Foster rat assessed as reduction in plasma phospholipid level at 100 mg/kg, po after 18 hrs; design: scale not given: the % may be the effect or the level left
[4] = Antioxidant activity assessed as inhibition of superoxide at 100 ug/mL
[5] = Antioxidant activity assessed as inhibition of hydroxyl radical at 100 ug/mL
[6] = Antioxidant activity assessed as inhibition of microsomal lipid peroxidation at 100 ug/mL
[7] = Antioxidant activity assessed as inhibition of superoxide at 20 ug/mL

Row | SMILES | Activity (Rattus norvegicus [1]) [%] | Activity (Rattus norvegicus [2]) [%] | Activity (Rattus norvegicus [3]) [%] | inhibition [4] [%] | inhibition [5] [%] | inhibition [6] [%] | inhibition [7] [%]
1 | CCCCCCCN/C=C1/C=C(C=O)c2c(ccc3c(C)cc(=O)oc23)C1=O | 24 | 22 | 20 | 45 | 49 | 34 | 
2 | Cc1cc(=O)oc2c3c(ccc12)C(=O)/C(=C\NCCC1CNCCO1)C=C3C=O (stereo not given) | 20 | 25 | 21 |  |  | 31 | 
3 | OC[C@@H](O)[C@@H](O)[C@H](O)[C@H](O)CO |  |  |  |  | 48 | 45 | 
4 | CCCCN/C=C1/C=C(C=O)c2c(ccc3c(C)cc(=O)oc23)C1=O |  |  |  |  |  | 37 | 
5 | Cc1ccc(C)c(OCCCC(C)(C)C(=O)O)c1 [GEMFIBROZIL] | 33 | 34 | 32 |  |  |  | 
6 | Cc1c(C)c2c(c(C)c1O)CC[C@@](C)(CCC[C@H](C)CCC[C@H](C)CCCC(C)C)O2 |  |  |  |  | 48 | 45 | 
7 | Oc1ncnc2[nH]ncc12 |  |  |  |  |  |  | 90
8 | Cc1cc(=O)oc2c1ccc1c(O)c(C=O)cc(C=O)c12 | 23 | 21 | 25 | 72 | 52 | 27 | 
